Assay results from patent US12616688B2, “Cell glycocalyx protection effect of anisodamine” (priority 2020, dated 2026).

Legend:
Type in all cases: cell-based, human
[1] = tested on: glycocalyx HS and cadherin of hCMEC/D3 cell; experiment: Immunofluorescence staining and confocal microscopy of HS and cadherin
Procedure: 2.1 Experimental Groups: Normal Control Group, LPS Treatment Group (50 μg/mL), Low-Concentration Administration Group (LPS 50 μg/mL+Anisodamine Hydrobromide 10 μg/mL), and High-Concentration Administration Group (LPS 50 μg/mL+Anisodamine Hydrobromide 20 μg/mL). 2.2 Immunofluorescence Staining and Confocal Microscopy
A cell was fixed and penetrated, then blocked with 2% goat serum, and labeled with a murine HS monoclonal antibody (mAb) (1:100, 10E4 epitope, AMS Biotechnology, UK), a rabbit cadherin polyclonal antibody (pAb) (1:100, A0734, Abclonal, China), an Alexa Fluor 488 goat anti-murine (1:400, A11001, Thermo Fisher) secondary antibody, and an Alexa Fluor 568 donkey anti-rabbit (1:400, A10042, Thermo Fisher) secondary antibody. The cell nucleus was labeled with DAPI. Mounting was conducted, and then the cell was detected under a confocal microscope at LSM710.

hCMEC/D3 cell [2] = experiment: CCK-8 cell proliferation assay; settings: under 50 μg/mL LPS, 24 h
Procedure: Immortalized HBMVEC hCMEC/D3 was taken from the Beijing Beina Chuanglian Biotechnology Institute (BNBIO) in China. The hCMEC/D3 endothelial cell was cultivated with an endothelial cell culture medium (ECM; cat.1001, Sciencell, USA) at 37° C. and 5% CO2. Anisodamine hydrobromide was taken from the Chengdu First Pharmaceutical Co., Ltd., Chengdu, China. Anisodamine hydrobromide was dissolved in distilled water at 20 mg/mL, then a resulting solution was filtered through a 0.22 μm filter membrane, and anisodamine hydrobromide solutions with final concentrations of 10 μg/mL, 20 μg/mL, 40 μg/mL, and 80 μg/mL each were prepared with ECM. LPS was dissolved in distilled water at 2 mg/mL, and LPS solutions with concentrations of 1 μg/mL, 10 μg/mL, 20 μg/mL, 50 μg/mL, and 100 μg/mL each were prepared with ECM. The hCMEC/D3 cell was treated with LPS and anisodamine hydrobromide.
The cell proliferation was assayed by the CCK-8 method (C0042, Beyotime, China). 2,000 cells were inoculated into a 96-well plate, cultivated for 24 h, and then treated with LPS and anisodamine hydrobromide; and before the end of the experiment, a CCK8 assay solution was added, the plate was incubated for 1 h, and then the absorbance at 450 nm was determined by a microplate reader (Labsery K3 Touch, Thermo Fisher, USA).

hCMEC/D3 barrier = experiment: Endothelial permeability assay (Transwell, FITC-dextran leakage); settings: for LPS-induced permeability relative to control group: 24 h
Procedure: 3.1 Experimental Groups: Which were the Same as in Example 2.
A cell (5×10^4 in 200 μL ECM) was inoculated into an upper well of Transwell (0.4 μm, Corning, USA), and 200 μL of ECM was added to a lower well; the Transwell was incubated for 3 d in a 37° C. and 5% CO2 incubator until a cell confluency was 90%; a medium in the upper well was replaced with 50 μg/mL LPS or anisodamine hydrobromide (10 μg/mL or 20 μg/mL)-free fresh ECM, and a medium in the lower well was replaced with fresh ECM; 24 h later, 10 μL of fluorescein isothiocyanate (FITC)-dextran (40 kDa; Cat. 46944, Sigma-Aldrich, USA) was added to the upper well; 40 min later, 100 μL of a medium was taken from the lower well, and fluorescence values at 490 nm and 525 nm were determined; and a leakage amount of FITC-dextran was calculated to assess the permeability of an endothelial cell layer.

hCMEC/D3 cell [3] = experiment: NO production assay
Procedure: 4.1 Experimental Groups: Which were the Same as in Example 2.
A cell was pre-cooled with PBS, then ultrasonically disrupted and homogenized, and centrifuged at 16,000 g and 4° C. for 20 min, a resulting supernatant was collected, and a NO detection kit (Nanjing Jiancheng Institute of Biological Engineering A012) was used to determine the absorbance at 550 nm, thereby determining an NO level.

[4] = LPS 50 μg/mL + anisodamine hydrobromide 10 μg/mL
[5] = LPS 50 μg/mL + anisodamine hydrobromide 20 μg/mL
[6] = LPS 50 μg/mL + anisodamine hydrobromide 10 or 20 μg/mL

SMILES: Br.CN1[C@H]2C[C@H](OC(=O)[C@H](CO)c3ccccc3)C[C@@H]1[C@@H](O)C2 [anisodamine hydrobromide, Anisodamine hydrobromide]
- loss of cadherin and HS [1, 4]: inhibit the loss of cadherin and HS
- loss of cadherin and HS [1, 5]: inhibit the loss of cadherin and HS
- integrity and width of a cell junction [1, 6]: restored the integrity and width of a cell junction
- cadherin level and HS coverage rate ([1]; compared with the control group and the 10 μg/mL anisodamine hydrobromide group (group not named, apparently 20 μg/mL)): increased slightly, but not significantly
- cell proliferation (hCMEC/D3 cell [2]; anisodamine hydrobromide 20 μg/mL): significantly increased the cell proliferation
- cell proliferation (hCMEC/D3 cell [2]; anisodamine hydrobromide 20 μg/mL, listed as anisodamine): significantly improve the proliferation
- cell proliferation (hCMEC/D3 cell [2]; anisodamine hydrobromide 80 μg/mL): significantly down-regulated the cell proliferation
- cell proliferation (hCMEC/D3 cell [2]; anisodamine hydrobromide 80 μg/mL, listed as anisodamine): significantly inhibit the proliferation
- LPS-induced permeability relative to control group (hCMEC/D3 barrier; [4]): 2.7 times
- LPS-induced permeability relative to control group (hCMEC/D3 barrier; [5]): 2.6 times
- permeability, anisodamine hydrobromide group vs control group (hCMEC/D3 barrier; [6]): no significant difference
- LPS-induced NO production relative to control group (hCMEC/D3 cell [3]; [4]): 1.2 times
- LPS-induced NO level (hCMEC/D3 cell [3]; LPS 50 μg/mL + anisodamine hydrobromide 10 μg/mL (second mention)): significantly reduced the LPS-induced NO level
